Values joined by “and” are separate entries in the source; they are usually repeats but may differ in a detail not shown here. Identical values can stand only once.
How the values were obtained:
NOD splenocytes = assay: Annexin V/PI flow cytometry of cultured splenocytes with and without TNF-α; type: cell-based, mouse; settings: for TNF sensitivity of T cell subpopulation: FIG. 13
Procedure: (§1) Flow cytometry can be performed using a Facscalibur flow cytometer (BD Biosciences, San Jose, Calif.). Samples were incubated for 18-24 hours in the absence or presence of TNF-α (20-50 ng/mL), after which apoptotis can be determined by direct detection using FITC-conjugated annexin V and Propidium Iodide (PI) from R&D Systems (TACS Annexin V-FITC Apoptosis Detection Kit; Minneapolis, Minn.). Early apoptotic cells were defined as positive for annexin V only, whereas late apoptotic cells were defined as being positive for both PI and annexin V.
(§2) In order to obtain high viability for those assays using splenocytes, gentle treatment throughout the isolation procedure is important. Optimized results were obtained as follows: a mouse is sacrificed by cervical dislocation and the spleen removed via an abdominal incision. The spleen is then gently inflated with several mLs of RPMI/10% FBS using a 22 gauge needle. Any fluid leaking out of the spleen is collected as it contains splenocytes. A small opening is created on one end of the spleen and the splenic tissue expelled through this opening with a “scraping” motion using blunt tipped forceps. The resulting clumps of tissue are homogenized by repeated gentle pipetting. The crude splenocyte preparation is then filtered through a 40 micron mesh filter.
(§3) The spleen contains a variety of different immune cells. These can be distinguished further into T-cells (mostly CD4 and CD8) and non-T-cells (mostly B-cells and macrophages). Magnetic separation methods were used to sort the splenocytes into T-cell and non-T-cell fractions. For the isolation of T-cells, Miltenyi Biotec's Pan T magnetic bead cocktail were used. This cocktail contains antibodies against CD11b, CD45R, DX5, and Ter-119. As a result, all Non-T cells, i.e. B cells, NK cells, dendritic cells, macrophages, granulocytes, and erythroid cells; are depleted from the sample, leaving only T-cells. For the isolation of non-T-cells, a mixture of magnetic beads directed against CD90 and Ter-119 were used. This depletes all T-cells and erythroid cells, leaving only the non-T cells.
(§4) The difference in sensitivity between B6 and NOD splenocytes to TNF-α was then examined. B6 and NOD splenocytes were plated out in U-bottom shaped 96 well plates at a density of 25,000 cells per well in 100 μL of medium, with and without 50 ng/mL TNF-α added. The cells were cultured for 24 hrs, stained with Annexin V and PI, and analyzed by flow cytometry (FIG. 10).
(§5) After culture at 37° C. for 26 hours, the cell death of NOD vs. B6 T cells and NOD vs. B6 non T cells was quantified by AnnexinV and PI (FIG. 11). Late death is shown for cells obtained from a single NOD and a single B6 mouse.
(§6) Samples obtained from a single NOD and a single B6 mouse were also examined for cell death by PI staining alone (FIG. 12) after culturing at 32° C. for 18 hours.
(§7) Therefore, Annexin V binding/PI uptake measurements were used to measure specific cellular lineages in the human PBLs based on fluorescence activated cell scanning (FACS) analysis. PBLs were stained with anti-CD3, anti-Annexin V, and anti-PI antibodies immediately after isolation. After 12 or 24 hours in culture in the presence or absence of TNF-α, cells were analyzed by FACS for Annexin V/PI binding to defined lineages. Over the course of these studies several important differences emerged in the behavior of human PBLs compared to NOD splenocytes (Table 1). First, human PBL isolates contained a large amount of cell fragments and debris, both at baseline and after culture. This finding was not evident in the NOD splenocyte preparations. Comparing the responses of non-diabetic C57BL/6 murine splenocytes to non-diabetic humans PBLs, the viability of C57BL/6 splenocytes remained constant during a 24 hour period of culture in vitro, whereas a progressive increase in spontaneous cell death of human PBLs was regularly observed over this interval. […]

B6 (C57BL/6) splenocytes = assay: as above; type: cell-based, mouse
Procedure: as §1, §2, §3, §4, §5, §6, §7

[1] = test system: PBLs from non-diabetic control subjects; assay: FACS Annexin V binding/PI uptake in human PBLs cultured with or without TNF-α; type: cell-based
Procedure: as §7
The results generated using CD3, CD19, and CD11b positive PBLs isolated from 33 Type I diabetics and from control subjects (see Table 1) support the following conclusions. […] After 12 hours, these cells were stained with Annexin V and PI and analyzed by FACS.

[2] = test system: B6 mouse splenocytes (T cells, non-T cells)
Procedure: (§12) Following is an optimized protocol for the automated analysis of cell sensitivity to compounds that induce cell death via apoptosis or necrosis.
(§13) Place on AutoMACS cell sorter for CD-subset separation (magnetic bead separation method or direct RBC lysis)
(§14) Pipette 100 μL cell suspension (25,000 cells) into each 96-well plate well, ×3 for triplicates
(§15) Add 5 μL of reagent (e.g., TNF-α, another induced or cell death, or mixtures containing up to 10 different chemical reagent combinations for the induction of cell death), to each well to be treated, ×3 for triplicates.
(§16) For flow cytometry (analysis), remove 90 μL of re-suspended sample material from each sample well
(§17) Add 90 μl of cell stain solution to each sample flow test tube above to stain cells for identification
(§18) The sensitivity of T cell populations from NOD mice were re-examined using the automated assay described above.
(§19) Non-T cells from NOD and B6 mice were also examined for sensitivity to TNF-α-induced cell death.

[3] = test system: PBLs from Type I diabetics; assay: Trypan Blue uptake by human PBLs incubated with TNF-α; type: cell-based; settings: TNF-α 20 ng/mL, 24 hours, FIG. 14A
Procedure: (§8) In an initial set of assays for characterizing the response of PBLs from human diabetics and control subjects to incubation with TNF-α or other candidate compounds in vitro, uptake of the dye Trypan Blue, a relatively nonspecific measure of cell death, was used. […] However, there appeared to be an inverse correlation between the age-at-onset and the extent of the TNF-α induced-increase in Trypan Blue uptake by the PBLs (FIG. 14C).

[4] = test system: PBLs from non-diabetic subjects; assay: as above; type: cell-based; settings: TNF-α 20 ng/mL, 24 hours, FIG. 14B
Procedure: as §8

[5] = test system: CD3+ T cells from a patient with Type I diabetes; type: cell-based, human
Source text: (§9) II. Remove red blood cells and collect lymphocyte subsets:
(§10) 11. Acquire timed and/or absolute count/volume data
(§11) The automated method described herein has also been used for the assay of cell viability in a human patient. Blood samples were obtained from a patient with Type I diabetes and from a non-diabetic control subject. During the assay procedure, a CD3^+ T cell subset was isolated from each (Step 11.12 from the protocol). The cells were then contacted with TNF-α and cell viability was measured and compared to that found in control samples which were not contacted with TNF-α.

[6] = test system: CD3+ T cells from a non-diabetic control subject; type: cell-based, human
Source text: as §9, §10, §11

[7] = test system: NOD mouse splenocytes (T cells, non-T cells)
Procedure: as §12, §13, §14, §15, §16, §17, §18, §19

[8] = test system: PBLs from Type I diabetics; assay: FACS Annexin V binding/PI uptake in human PBLs cultured with or without TNF-α; type: cell-based; set-up: increase in Annexin V binding to CD3+ PBLs in response to TNF-α: dose or concentration left out as unconfirmed
Procedure: Therefore, Annexin V binding/PI uptake measurements were used to measure specific cellular lineages in the human PBLs based on fluorescence activated cell scanning (FACS) analysis. PBLs were stained with anti-CD3, anti-Annexin V, and anti-PI antibodies immediately after isolation. After 12 or 24 hours in culture in the presence or absence of TNF-α, cells were analyzed by FACS for Annexin V/PI binding to defined lineages. Over the course of these studies several important differences emerged in the behavior of human PBLs compared to NOD splenocytes (Table 1). First, human PBL isolates contained a large amount of cell fragments and debris, both at baseline and after culture. This finding was not evident in the NOD splenocyte preparations. Comparing the responses of non-diabetic C57BL/6 murine splenocytes to non-diabetic humans PBLs, the viability of C57BL/6 splenocytes remained constant during a 24 hour period of culture in vitro, whereas a progressive increase in spontaneous cell death of human PBLs was regularly observed over this interval. This differential response of cell viability to culture in vitro may possibly reflect an intrinsic fragility of human PBLs and/or the greater rigors of cell isolation required for purification of human PBLs as compared with murine splenocytes. […] Another difference between PBLs from human Type I diabetics and NOD splenocytes is that the evolution of TNF-α-induced apoptosis in NOD splenocytes occurs with a predictable time course that is much more rapid than that seen in PBLs from Type I diabetics. […] By 24 hours, there was little further increase in the fraction of cells binding Annexin V. However, nuclear binding of PI to NOD splenocytes had increased substantially reflecting a further progression of the apoptotic program. By contrast, cell death in response to TNF-α in human CD3 positive-PBLs, when evident, evolved much more slowly. For example, increased Annexin V binding was rarely seen after 12 hours and at 24 hours, increased Annexin V uptake, when present, was generally not accompanied by increased PI uptake.
The results generated using CD3, CD19, and CD11b positive PBLs isolated from 33 Type I diabetics and from control subjects (see Table 1) support the following conclusions. […] In these studies, PBLs were processed in parallel from a Type I diabetic and an age/sex matched control non-diabetic subject. Immediately after isolation, the PBLs were incubated with Annexin V and propidium iodide and subjected to FACS analysis (left column of flow charts; “before incubation”). […] The cells were then incubated in the absence (center panels) or presence (right panels) of TNF-α (20 ng/mL). After 12 hours, these cells were stained with Annexin V and PI and analyzed by FACS.

- Annexin V binding (NOD splenocytes; NOD splenocytes, 12-hour incubation with TNF-α): clear increase in Annexin V binding
- Annexin V staining after culture in the presence of TNF-α ([1]; PBLs of two parallel non-diabetic control subjects, TNF-α 20 ng/mL, 12 hours, without TNF-α 5.0 and 9.0%): 5.5% and 7.5%
- staining by Annexin V+PI+ ([8]; PBLs from a diabetic patient vs matched control, TNF-α 20 ng/mL, 12 hours, FIGS. 15A, 15B): increased significantly and selectively
- Annexin V staining after culture in the presence of TNF-α ([8]; PBLs of two Type I diabetic subjects (FIGS. 15A, 15B), TNF-α 20 ng/mL, 12 hours, without TNF-α 6.5% and 6.2%): 11.3% and 13.4%
Substance: TNF-α
- TNF sensitivity of T cell subpopulation (NOD splenocytes; NOD CD4+ T cells): not TNF sensitive
- TNF sensitivity of T cell subpopulation (NOD splenocytes; NOD CD8+ T cells): greatest TNF sensitivity
- cell death of T cells by PI staining alone on exposure to TNF-α (NOD splenocytes; NOD T cells, 32° C., 18 hours, single mouse, FIG. 12): death of a subpopulation of T cells
- late cell death of T cells by AnnexinV and PI on exposure to TNF-α (NOD splenocytes; NOD T cells, 37° C., 26 hours, single mouse, FIG. 11): further accelerated
- After culture with THF-α (Mean % cell death ± SE) (NOD splenocytes; NOD mouse, overnight early T-cell death, n=5 pairs): 32.9 ± 3.97%
- sensitivity of splenocytes to TNF-α (viability, Annexin V/PI) (NOD splenocytes; NOD vs B6 control splenocytes, 50 ng/mL TNF-α, 24 hrs, 25,000 cells per well, FIG. 10): much more sensitive
- cell death of T cells by PI staining alone on exposure to TNF-α (B6 (C57BL/6) splenocytes; B6 T cells, 32° C., 18 hours, single mouse, FIG. 12): do not exhibit TNF induced death
- late cell death of T cells by AnnexinV and PI on exposure to TNF-α (B6 (C57BL/6) splenocytes; B6 T cells, 37° C., 26 hours, single mouse, FIG. 11): increased viability
- After culture with THF-α (Mean % cell death ± SE) (B6 (C57BL/6) splenocytes; C57BL/6 mouse, overnight early T-cell death, n=7 pairs): 10.2 ± 2.5%
- After culture with THF-α (Mean % cell death ± SE) ([1]; human random controls, overnight early T-cell death, n printed 3): 8.02 ± 0.85%
- viability of splenocytes treated with TNF-α [2]: 69.7%
- viability change of non-T cells, TNF-α treated vs untreated ([2]; B6 mice non-T cells, n=12, FIG. 18B): 5.0%
- change in splenocyte viability on TNF-α treatment (increase) ([2]; control B6 mice, n=17, T cell populations, FIG. 16): 1.0+/−0.5
- extent of Trypan Blue uptake [3]: further increasing Trypan Blue uptake
- extent of Trypan Blue uptake [4]: did not significantly alter
- Viability (%) [5]: 93%
- Death (%) ([5]; Type I diabetic, CD3+ cells, TNF-α +, without TNF-α 5): 7%
- Total Cell Count ([5]; Type I diabetic, CD3+ cells, TNF-α +, without TNF-α 1900): 1900
- Viability (%) [6]: 96%
- Death (%) ([6]; Control subject, CD3+ cells, TNF-α +, without TNF-α 5): 4%
- Total Cell Count ([6]; Control subject, CD3+ cells, TNF-α +, without TNF-α 2000): 2200
- change in splenocyte viability on TNF-α treatment (decrease) ([7]; NOD diabetic mice, n=17, T cell populations, FIG. 16): −2.7+/−0.9
- viability change of non-T cells, TNF-α treated vs untreated ([7]; NOD mice non-T cells, n=12, FIG. 18B): 4.6%
- increase in Annexin V binding to CD3+ PBLs in response to TNF-α ([8]; Type I diabetic vs non-diabetic PBLs, 24 hours, TNF-α): greater to a statistically significant extent
- After culture with THF-α (Mean % cell death ± SE) ([8]; human IDDM patients, overnight early T-cell death, n=33 pairs): 8.73 ± 0.96%

Reference: US20040229785A1, “Screening methods to identify treatments for autoimmune disease” (priority 2002, published 2004)
